Test results published in PubChem BioAssay (NCI).
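Protocol summary: plate cells (96-well), add compound at 5 concentrations, incubate 48 h, interpolate endpoints linearly. Definition used: TGI = concentration required for complete inhibition of growth.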

Key:
Assay in all cases: NCI-60 cell line screen, 48 h
[1] = system: 786-0 renal
[2] = system: A498 renal
[3] = system: A549 NSCLC
[4] = system: ACHN renal
[5] = system: BT-549 breast
[6] = system: CAKI-1 renal
[7] = system: CCRF-CEM leukemia
[8] = system: COLO 205 colon
[9] = system: DU-145 prostate
[10] = system: EKVX NSCLC
[11] = system: HCC-2998 colon
[12] = system: HCT-116 colon
[13] = system: HCT-15 colon
[14] = system: HL-60(TB) leukemia
[15] = system: HOP-62 NSCLC
[16] = system: HOP-92 NSCLC
[17] = system: HS 578T breast
[18] = system: HT29 colon
[19] = system: IGROV1 ovarian
[20] = system: K-562 leukemia
[21] = system: KM12 colon
[22] = system: LOX IMVI melanoma
[23] = system: M14 melanoma
[24] = system: MALME-3M melanoma
[25] = system: MCF7 breast
[26] = system: MDA-MB-231 breast
[27] = system: MDA-MB-435
[28] = system: MDA-N
[29] = system: NCI-H23 lung
[30] = system: NCI-H460 lung
[31] = system: NCI-H522 lung
[32] = system: NCI/ADR-RES ovarian
[33] = system: OVCAR-3 ovarian
[34] = system: OVCAR-4 ovarian
[35] = system: OVCAR-5 ovarian
[36] = system: PC-3 prostate
[37] = system: RXF 393 renal
[38] = system: SF-268 CNS
[39] = system: SF-295 CNS
[40] = system: SF-539 CNS
[41] = system: SK-MEL-2 melanoma
[42] = system: SK-MEL-28 melanoma
[43] = system: SK-MEL-5 melanoma
[44] = system: SK-OV-3 ovarian
[45] = system: SN12C renal
[46] = system: SNB-19 CNS
[47] = system: SNB-75 CNS
[48] = system: SR leukemia
[49] = system: SW-620 colon
[50] = system: T-47D breast
[51] = system: TK-10 renal
[52] = system: U251 CNS
[53] = system: UACC-257 melanoma
[54] = system: UACC-62 melanoma
[55] = system: UO-31 renal
[56] = system: MOLT-4 leukemia
[57] = system: OVCAR-8 ovarian
[58] = system: RPMI-8226 leukemia
[59] = system: NCI-H226 lung

CC1(C)N=C(N)N=C(N)N1c1cccc(Cl)c1
TGI [1]: > 100 µM
TGI [2]: > 100 µM
TGI [3]: > 100 µM
TGI [4]: > 100 µM
TGI [5]: > 100 µM
TGI [6]: > 100 µM
TGI [7]: > 100 µM
TGI [8]: > 100 µM
TGI [9]: > 100 µM
TGI [10]: > 100 µM
TGI [11]: > 100 µM
TGI [12]: > 100 µM
TGI [13]: > 100 µM
TGI [14]: > 100 µM
TGI [15]: > 100 µM
TGI [16]: > 100 µM
TGI [17]: > 100 µM
TGI [18]: > 100 µM
TGI [19]: > 100 µM
TGI [20]: > 100 µM
TGI [21]: > 100 µM
TGI [22]: > 100 µM
TGI [23]: > 100 µM
TGI [24]: > 100 µM
TGI [25]: > 100 µM
TGI [26]: > 100 µM
TGI [27]: > 100 µM
TGI [28]: > 100 µM
TGI [29]: > 100 µM
TGI [30]: > 100 µM
TGI [31]: > 100 µM
TGI [32]: > 100 µM
TGI [33]: > 100 µM
TGI [34]: > 100 µM
TGI [35]: > 100 µM
TGI [36]: > 100 µM
TGI [37]: > 100 µM
TGI [38]: > 100 µM
TGI [39]: > 100 µM
TGI [40]: > 100 µM
TGI [41]: > 100 µM
TGI [42]: > 100 µM
TGI [43]: > 100 µM
TGI [44]: > 100 µM
TGI [45]: > 100 µM
TGI [46]: > 100 µM
TGI [47]: > 100 µM
TGI [48]: > 100 µM
TGI [49]: > 100 µM
TGI [50]: > 100 µM
TGI [51]: > 100 µM
TGI [52]: > 100 µM
TGI [53]: > 100 µM
TGI [54]: > 100 µM
TGI [55]: > 100 µM

CSc1nc(=O)c2nc(-c3cccs3)c(-c3cccs3)nc2n1C
TGI [1]: > 100 µM
TGI [2]: > 100 µM
TGI [3]: > 100 µM
TGI [4]: > 100 µM
TGI [5]: > 100 µM
TGI [6]: > 100 µM
TGI [7]: > 100 µM
TGI [8]: > 100 µM
TGI [9]: > 100 µM
TGI [10]: > 100 µM
TGI [11]: > 100 µM
TGI [12]: > 100 µM
TGI [13]: > 100 µM
TGI [14]: > 100 µM
TGI [15]: 47.2 µM
TGI [16]: 83.5 µM
TGI [17]: > 100 µM
TGI [18]: > 100 µM
TGI [19]: > 100 µM
TGI [20]: > 100 µM
TGI [21]: > 100 µM
TGI [22]: > 100 µM
TGI [23]: > 100 µM
TGI [24]: > 100 µM
TGI [25]: > 100 µM
TGI [26]: > 100 µM
TGI [27]: > 100 µM
TGI [28]: > 100 µM
TGI [56]: > 100 µM
TGI [29]: > 100 µM
TGI [30]: > 100 µM
TGI [31]: 89.1 µM
TGI [32]: > 100 µM
TGI [34]: > 100 µM
TGI [35]: > 100 µM
TGI [57]: > 100 µM
TGI [36]: > 100 µM
TGI [58]: > 100 µM
TGI [37]: 59.6 µM
TGI [38]: > 100 µM
TGI [39]: > 100 µM
TGI [41]: > 100 µM
TGI [42]: > 100 µM
TGI [43]: > 100 µM
TGI [44]: > 100 µM
TGI [45]: > 100 µM
TGI [46]: > 100 µM
TGI [47]: 49.6 µM
TGI [48]: > 100 µM
TGI [49]: > 100 µM
TGI [50]: 80.4 µM
TGI [51]: > 100 µM
TGI [52]: > 100 µM
TGI [53]: > 100 µM
TGI [54]: > 100 µM
TGI [55]: > 100 µM

C=C1C(=O)O[C@H]2C[C@@H]1C(=O)CC(C)CCCC(C)=CCC[C@@]2(C)O (stereo not given in full)
TGI [1]: > 25 µM
TGI [2]: > 25 µM
TGI [3]: > 25 µM
TGI [4]: > 25 µM
TGI [5]: > 25 µM
TGI [7]: > 25 µM
TGI [8]: > 25 µM
TGI [9]: > 25 µM
TGI [10]: > 25 µM
TGI [11]: > 25 µM
TGI [12]: > 25 µM
TGI [13]: > 25 µM
TGI [14]: > 25 µM
TGI [15]: > 25 µM
TGI [16]: > 25 µM
TGI [17]: > 25 µM
TGI [18]: > 25 µM
TGI [19]: > 25 µM
TGI [21]: > 25 µM
TGI [22]: > 25 µM
TGI [23]: > 25 µM
TGI [24]: > 25 µM
TGI [25]: > 25 µM
TGI [26]: > 25 µM
TGI [27]: > 25 µM
TGI [28]: > 25 µM
TGI [56]: > 25 µM
TGI [59]: > 25 µM
TGI [29]: > 25 µM
TGI [30]: > 25 µM
TGI [31]: > 25 µM
TGI [32]: > 25 µM
TGI [33]: > 25 µM
TGI [34]: > 25 µM
TGI [35]: > 25 µM
TGI [57]: > 25 µM
TGI [36]: > 25 µM
TGI [58]: > 25 µM
TGI [37]: > 25 µM
TGI [38]: > 25 µM
TGI [39]: > 25 µM
TGI [40]: > 25 µM
TGI [41]: > 25 µM
TGI [42]: > 25 µM
TGI [43]: > 25 µM
TGI [44]: > 25 µM
TGI [45]: > 25 µM
TGI [46]: > 25 µM
TGI [48]: > 25 µM
TGI [49]: > 25 µM
TGI [50]: > 25 µM
TGI [51]: > 25 µM
TGI [52]: > 25 µM
TGI [53]: > 25 µM
TGI [54]: > 25 µM
TGI [55]: > 25 µM

CC1(C)C=C(/C=C2/N(S(=O)(=O)C(F)(F)F)C(/C=C3/N(S(=O)(=O)C(F)(F)F)C(C)(C#N)CC3(C)C)=CC2(C)C)N=C1/C=C1/CC(C)(C)C(=O)N1 (stereo not given)
TGI [1]: > 100 µM
TGI [2]: > 100 µM
TGI [3]: > 100 µM
TGI [4]: > 100 µM
TGI [5]: > 100 µM
TGI [6]: > 100 µM
TGI [7]: 52.8 µM
TGI [8]: 39.2 µM
TGI [9]: > 100 µM
TGI [10]: 81.2 µM
TGI [11]: > 100 µM
TGI [12]: 42.8 µM
TGI [13]: 73.6 µM
TGI [14]: 21.2 µM
TGI [15]: > 100 µM
TGI [16]: 95.3 µM
TGI [17]: 57.7 µM
TGI [18]: > 100 µM
TGI [19]: 62.9 µM
TGI [20]: > 100 µM
TGI [21]: > 100 µM
TGI [22]: 72.9 µM
TGI [23]: > 100 µM
TGI [25]: > 100 µM
TGI [26]: > 100 µM
TGI [27]: > 100 µM
TGI [28]: > 100 µM
TGI [56]: > 100 µM
TGI [59]: > 100 µM
TGI [29]: > 100 µM
TGI [30]: > 100 µM
TGI [31]: 27.9 µM
TGI [32]: > 100 µM
TGI [33]: > 100 µM
TGI [34]: > 100 µM
TGI [35]: > 100 µM
TGI [57]: > 100 µM
TGI [36]: > 100 µM
TGI [58]: 23.4 µM
TGI [37]: 81.3 µM
TGI [38]: 36 µM
TGI [39]: > 100 µM
TGI [40]: 84.5 µM
TGI [41]: > 100 µM
TGI [42]: > 100 µM
TGI [43]: 71.6 µM
TGI [44]: > 100 µM
TGI [45]: > 100 µM
TGI [46]: > 100 µM
TGI [47]: > 100 µM
TGI [48]: > 100 µM
TGI [49]: > 100 µM
TGI [50]: > 100 µM
TGI [51]: > 100 µM
TGI [52]: > 100 µM
TGI [53]: > 100 µM
TGI [54]: 69.1 µM
TGI [55]: > 100 µM
